Measurements as given in the NIST ThermoML archive (doi:10.1021/acs.jced.9b00484).

Experiment: Boiling temperature at pressure P
Conditions: Liquid, Ebulliometric method (Recirculating still)

ClCCCl [1,2-dichloroethane]
Conditions	Boiling temperature at pressure P [°C]
60.01 kPa	67.30
66.68 kPa	70.70
73.35 kPa	73.40
80.02 kPa	76.30
86.69 kPa	78.90
101.35 kPa	84.10
